Values of other authors in patent US7785824B2, “Hydrolysed casein product comprising tripeptides IPP and/or VPP” (Conopco Inc., priority 2003, dated 2010).

What was measured:
[1] = biological target: Angiotensin I Converting Enzyme (ACE) (Homo sapiens, UniProt P12821); conditions: concentration which results in 50% inhibition of the ACE activity
hypertensive humans = conditions: in sour milk, placebo-controlled study

Chain of Angiotensin I Converting Enzyme (ACE) (P12821 30-1306, species assumed): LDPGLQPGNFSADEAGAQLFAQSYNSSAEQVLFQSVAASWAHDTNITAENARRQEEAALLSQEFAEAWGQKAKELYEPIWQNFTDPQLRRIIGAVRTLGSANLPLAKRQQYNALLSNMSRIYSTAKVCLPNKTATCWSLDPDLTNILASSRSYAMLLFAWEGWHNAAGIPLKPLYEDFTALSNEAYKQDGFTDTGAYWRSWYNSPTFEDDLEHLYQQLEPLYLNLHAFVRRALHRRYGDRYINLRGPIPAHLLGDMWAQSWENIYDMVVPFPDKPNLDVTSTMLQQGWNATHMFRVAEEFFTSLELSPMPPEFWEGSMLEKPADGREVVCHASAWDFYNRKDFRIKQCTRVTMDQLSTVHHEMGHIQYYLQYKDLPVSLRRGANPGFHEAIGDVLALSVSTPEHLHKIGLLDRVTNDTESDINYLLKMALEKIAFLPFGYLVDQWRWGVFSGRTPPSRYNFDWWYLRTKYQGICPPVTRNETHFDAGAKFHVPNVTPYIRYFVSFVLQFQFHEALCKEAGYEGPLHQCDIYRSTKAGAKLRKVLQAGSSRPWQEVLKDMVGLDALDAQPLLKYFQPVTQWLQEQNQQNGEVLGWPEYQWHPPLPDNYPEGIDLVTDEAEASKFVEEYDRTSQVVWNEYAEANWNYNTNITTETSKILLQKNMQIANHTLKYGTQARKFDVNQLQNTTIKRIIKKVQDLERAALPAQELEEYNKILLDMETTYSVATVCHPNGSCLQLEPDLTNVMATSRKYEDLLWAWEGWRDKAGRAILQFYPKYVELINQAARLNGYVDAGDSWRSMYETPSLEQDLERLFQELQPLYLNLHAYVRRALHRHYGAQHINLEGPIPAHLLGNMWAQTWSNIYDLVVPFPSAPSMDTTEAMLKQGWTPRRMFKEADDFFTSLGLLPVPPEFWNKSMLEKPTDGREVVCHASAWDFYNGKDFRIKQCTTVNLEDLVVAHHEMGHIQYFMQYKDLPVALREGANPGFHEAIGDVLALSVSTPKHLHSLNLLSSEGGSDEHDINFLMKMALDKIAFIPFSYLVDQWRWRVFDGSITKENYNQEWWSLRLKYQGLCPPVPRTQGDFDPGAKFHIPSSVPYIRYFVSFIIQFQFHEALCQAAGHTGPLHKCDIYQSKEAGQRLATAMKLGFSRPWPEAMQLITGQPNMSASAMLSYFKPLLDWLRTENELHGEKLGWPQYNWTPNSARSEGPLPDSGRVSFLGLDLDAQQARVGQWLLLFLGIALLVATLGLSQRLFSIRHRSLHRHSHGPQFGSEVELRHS

Row | Substance | IC50 [1] [µM] | blood pressure lowering effect (hypertensive humans)
1 | Leu-Pro-Pro [LPP] | 9.6 | 
2 | Val-Pro-Pro [VPP] | 9 | blood pressure lowering effect
3 | Ile-Pro-Pro [IPP] | 5 | blood pressure lowering effect
